A short description of data set [1]: In vitro stability in rat plasma (HPLC detection). It is filed as in vitro ADME. To be noted: 37° C., read-out: half-life of degradation with release of the active ingredient compound (A). How it is done:
(§1) c) In Vitro Stability in Rat Plasma and Human Plasma (HPLC Detection):
(§2) 0.5 mg of substance is dissolved in 1 ml of dimethyl sulfoxide/water 1:1. 500 μl of this sample solution are mixed with 500 μl of rat plasma at 37° C. and shaken. A first sample (10 μl) is immediately taken for HPLC analysis. In the period up to 2 h after the start of incubation, further aliquots are taken after 2, 5, 10, 30, 60 and 90 min, and the contents of the respective test substance and of the active ingredient compound (A) liberated therefrom are determined.
(§3) Agilent 1100 with DAD (G1314A), binary pump (G1312A), autosampler (G1329A), column oven (G1316A), thermostat (G1330A); column: Kromasil 100 C18, 250 mm×4.6 mm, 5 μm; column temperature: 30° C.; mobile phase A: water+5 ml of perchloric acid/liter, mobile phase B: acetonitrile.

A short description of data set [2]: Stability in buffer at various pH values (HPLC). Format: physicochemical. To be noted: buffer pH 4, 37° C., acetonitrile/buffer. How it is done: 0.25 mg of the test substance is weighed into a 2 ml HPLC vial and 0.5 ml of acetonitrile is added. The substance is dissolved by putting the sample vessel in an ultrasonic bath for about 10 seconds. Then 0.5 ml of the respective buffer solution is added, and the sample is again treated in the ultrasonic bath.
pH 4.0:1 liter of Millipore water is adjusted to pH 4.0 with 1 N hydrochloric acid;
pH 7.4: 90 g of sodium chloride, 13.61 g of potassium dihydrogen phosphate and 83.35 g of 1 M sodium hydroxide solution are made up to 1 liter with Millipore water and then diluted 1:10.
10 μl portions of the test solution are analyzed by HPLC for their content of unchanged test substance every hour over a period of 24 hours at 37° C. The percentage areas of the appropriate peaks are used for quantification.
Agilent 1100 with DAD (G1314A), binary pump (G1312A), autosampler (G1329A), column oven (G1316A), thermostat (G1330A); column: Kromasil 100 C18, 125 mm×4 mm, 5 μm; column temperature: 30° C.; mobile phase A: water+5 ml of perchloric acid/liter, mobile phase B: acetonitrile.

A short description of data set [3]: In vitro stability in human plasma (HPLC detection). It is filed as in vitro ADME. To be noted: 37° C., read-out: half-life of degradation with release of the active ingredient compound (A). How it is done:
as §1, §2, §3

The source of these data is patent publication US20110172232A1, “AMINOACYL PRODRUGS AS AN ACTIVE PHARMACEUTICAL INGREDIENT FOR THROMBOEMBOLIC DISORDERS” (Bayers Schering Pharma Aktiengesellschaft, priority 2007, published 2011).

Molecules are shown by their SMILES. Some results are limits rather than exact numbers.

As to `CCCCNCCCC(=O)N(C[C@H]1CN(c2ccc(N3CCOCC3=O)cc2F)C(=O)O1)C(=O)c1ccc(Cl)s1` [Example 22, N-[4-(Butylamino)butanoyl]-5-chloro-N-({(5S)-2-oxo-3-[2-fluoro-4-(3-oxomorpholin-4-yl)phenyl]-1,3-oxazolidin-5-yl}methyl)thiophene-2-carboxamide], the half-life at 0.25 mg/mL in data set [1] and in data set [3] was under 2 min throughout. Besides, the “time stable in solution at pH 4” value in data set [2] was “more than 16 h”.

The half-life is the time needed for the level to fall by half in the phase considered.
